Experimental data from US12091405B2, “Substituted pyrazole compounds as indoleamine 2,3-dioxygenase inhibitors” (Merck Sharp & Dohme LLC, priority 2018, dated 2024).
pIC50: −log10 of the molar value.

How the values were obtained:
IDO1 [1] = biological target: T1, IDO1 (Homo sapiens, UniProt P14902); assay: IDO1 Cellular Assay in HeLa Cells Stimulated with IFNγ; format: cell-based; details: IFNγ 100 ng/mL, 300 uM L-tryptophan, about 48 hours, fluorescence readout, read-out: IDO1 HELA Cell Assay, IC50
IDO1 [2] = biological target: T1, IDO1; assay: IDO1 Human Whole Blood Assay; format: cell-based; set-up: Human whole blood was drawn in sodium heparin coated tubes from healthy internal donors; from tissue; host or cells: human whole blood from healthy donors, stimulated with LPS and IFNγ; details: LPS and IFNγ 100 ng/mL, overnight (18 h), kynurenine by LC/MS/MS
Protocol: IDO1 Human Whole Blood Assay
Compounds to be tested were serially diluted in ten 3-fold steps in DMSO starting from 10 mM. 3 μL of compound dilutions or DMSO alone were then dispensed from the dilution plate into a polypropylene 96-well assay plate containing 97 μL of RPMI medium using an Echo 555 acoustic liquid handler (Labcyte). LPS and IFNγ was prepared in RPMI medium to a 10× of final conc. (1000 ng/mL), final concentration is 100 ng/mL.
Human whole blood was drawn in sodium heparin coated tubes from healthy internal donors. 240 μL of blood was transferred to each of the wells of a v-bottom 96 well plate. 30 μL of compound was transferred from intermediate dilution plate, and incubated for 15 min. 30 μL from stimulants was then transferred to blood and mixed thoroughly. Plate was covered with breathable membrane and incubated at 37° C. for overnight (18 h).
On day 2, isotope labeled standard solutions of kynurenine and tryptophan was made in water at 10× concentration and 30 μL was added to the blood at 3 μM final concentration. The assay plates were centrifuged at 300×G for 10 min with no brake to separate plasma from red blood cells. 60 μL of plasma samples was removed without disturbing red blood cells. Plasma was diluted with RPMI in 1:1 ratio and proteins were precipitated out with two volumes of Acetonitrile. The plates were centrifuged at 4000×G for 60 min. 20 μL of supernatant was carefully transferred to a 384 well plate containing 40 μL of 0.1% formic acid in water and analyzed by LC/MS/MS.
LC/MS/MS analyses were performed using Thermo Fisher's LX4-TSQ Quantum Ultra system. This system consists of four Agilent binary high-performance liquid chromatography (HPLC) pumps and a TSQ Quantum Ultra triple quadrupole MS/MS instrument. For each sample, 5 μL were injected onto an Atlantis T3 column (2.1 mm×150 mm, 3 μm particle size) from Waters. The mobile phase gradient pumped at 0.8 mL/min was used to elute the analytes from the column at 25 EC. The elution started at 0% B increasing linearly to 25% B at 6.5 min, holding at 25% for 1 min, re-equilibrating to 10 min. Mobile phase A consisted of 0.1% formic acid in water. Mobile phase B consisted of 0.1% of formic acid in acetonitrile. Data were acquired in positive mode using a HESI interface. The operational parameters for the TSQ Quantum Ultra instrument were a spray voltage of 4000 V, capillary temperature of 380° C., vaporizer temperature 400° C., shealth gas 60 arbitrary units, Aux gas 20 arbitrary units, tube lens 85 and collision gas 1.2 mTorr. SRM chromatograms of kynurenine (Qi: 209.2>Q3:94.0) and internal standard (Qi: 215.3>Q3:98.2) were collected for 90 sec. The peak area was integrated by Xcalibur Quan software. The ratios between the kynurenine generated in the reaction and 2D6-Kynurenine spiked-in internal standard were used to generate percentage inhibition and IC50 values. Compounds were titrated and IC50's were calculated by 4 parameter sigmoidal curve fitting formula.
The biological activity data of selective compounds using the IDO1 human whole blood assay described above are summarized in the table below.

T1 sequence (P14902 whole entry): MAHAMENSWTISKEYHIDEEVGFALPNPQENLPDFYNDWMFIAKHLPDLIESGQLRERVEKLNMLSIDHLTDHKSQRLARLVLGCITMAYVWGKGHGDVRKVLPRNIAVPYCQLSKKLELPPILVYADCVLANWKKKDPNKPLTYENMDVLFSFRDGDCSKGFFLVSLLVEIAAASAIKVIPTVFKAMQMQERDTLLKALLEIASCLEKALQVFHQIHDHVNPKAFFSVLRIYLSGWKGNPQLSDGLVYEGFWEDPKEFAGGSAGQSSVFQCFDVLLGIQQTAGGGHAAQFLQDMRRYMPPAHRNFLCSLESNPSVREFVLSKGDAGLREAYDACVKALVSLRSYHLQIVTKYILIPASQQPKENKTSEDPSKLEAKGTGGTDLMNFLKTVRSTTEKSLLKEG

SMILES | pIC50 (IDO1 [1]) | pIC50 (IDO1 [2])
Cc1cccc(C2CCN(C(=O)Cn3nc(C(=O)N4C[C@@H](C)O[C@@H](C)C4)c4c3CCC4)CC2)c1 [Example 65, 2-(3-((2S,6R)-2,6-dimethylmorpholine-4-carbonyl)-5,6-dihydrocyclopenta [c]pyrazol-1(4H)-yl)-1-(4-(m-tolyl)piperidin-1-yl)ethanone] | 7.80 | 6.19
C[C@@H]1CN(C(=O)c2nn(CC(=O)N3CCC(c4ccccc4)C(F)(F)C3)c3c2CCC3)C[C@H](C)O1 (stereo partly drawn) [Example 72, 1-(3,3-difluoro-4-phenylpiperidin-1-yl)-2-{3-[(2R,6S)-2,6-dimethylmorpholine-4-carbonyl]-5,6-dihydrocyclopenta[c]pyrazol-1(4H)-yl}ethan-1-one] | 6.84 | –
C[C@@H]1CN(C(=O)c2nn(CC(=O)N3CCC(c4cc(Cl)ccc4F)CC3)c3c2CCC3)C[C@H](C)O1 [Example 166, 1-[4-(5-chloro-2-fluorophenyl)piperidin-1-yl]-2-{3-[(2R,6S)-2,6-dimethylmorpholine-4-carbonyl]-5,6-dihydrocyclopenta[c]pyrazol-1(4H)-yl}ethan-1-one] | 6.58 | –
C[C@@H]1CN(C(=O)c2nn(CC(=O)N3CCC(C)(c4ccccc4)CC3)c3c2CCC3)C[C@H](C)O1 [Example 66, 2-{3-[(2R,6S)-2,6-dimethylmorpholine-4-carbonyl]-5,6-dihydrocyclopenta[c]pyrazol-1(4H)-yl}-1-(4-methyl-4-phenylpiperidin-1-yl)ethan-1-one] | 7.36 | –
C[C@@H]1CN(C(=O)c2nn(CC(=O)N3CCC(c4ccc(C(F)(F)F)c(Cl)c4)CC3)c3c2CCC3)C[C@H](C)O1 [Example 169, 1-{4-[3-chloro-4-(trifluoromethyl)phenyl]piperidin-1-yl}-2-{3-[(2R,6S)-2,6-dimethylmorpholine-4-carbonyl]-5,6-dihydrocyclopenta[c]pyrazol-1(4H)-yl}ethan-1-one] | 6.48 | –
C[C@@H]1CN(C(=O)c2nn(CC(=O)N3CCC(c4ccccc4Cl)CC3)c3c2CCC3)C[C@H](C)O1 [Example 157, 1-[4-(2-chlorophenyl)piperidin-1-yl]-2-{3-[(2R,6S)-2,6-dimethylmorpholine-4-carbonyl]-5,6-dihydrocyclopenta[c]pyrazol-1(4H)-yl}ethan-1-one] | 6.83 | –
Cc1cccc(C2CCN(C(=O)Cn3nc(C(=O)N4CC[C@H](O)C4)c4c3CCC4)CC2)c1C [Example 48, (S)-1-(4-(2,3-dimethylphenyl)piperidin-1-yl)-2-(3-(3-hydroxypyrrolidine-1-carbonyl)-5,6-dihydrocyclopenta[c]pyrazol-1(4H)-yl)ethan-1-one] | 7.57 | –
COc1ccccc1C1CCN(C(=O)Cn2nc(C(=O)N3C[C@@H](C)O[C@@H](C)C3)c3c2CCC3)CC1 [Example 75, 2-{3-[(2R,6S)-2,6-dimethylmorpholine-4-carbonyl]-5,6-dihydrocyclopenta[c]pyrazol-1(4H)-yl}-1-[4-(2-methoxyphenyl)piperidin-1-yl]ethan-1-one] | 6.71 | –
C[C@@H]1CN(C(=O)c2nn(CC(=O)N3CCC(c4cccc(F)c4C(F)(F)F)CC3)c3c2CCC3)C[C@H](C)O1 [Example 118, 2-{3-[(2R,6S)-2,6-dimethylmorpholine-4-carbonyl]-5,6-dihydrocyclopenta[c]pyrazol-1(4H)-yl}-1-{4-[3-fluoro-2-(trifluoromethyl)phenyl]piperidin-1-yl}ethan-1-one] | 7.30 | –
Cc1c(C2CCN(C(=O)Cn3nc(C(=O)N4C[C@@H](C)O[C@@H](C)C4)c4c3CCC4)CC2)ccc(F)c1F [Example 174, 1-[4-(3,4-difluoro-2-methylphenyl)piperidin-1-yl]-2-{3-[(2R,6S)-2,6-dimethylmorpholine-4-carbonyl]-5,6-dihydrocyclopenta[c]pyrazol-1(4H)-yl}ethan-1-one] | 7.99 | –
C[C@@H]1CN(C(=O)c2nn(CC(=O)N3CCC(c4ccccc4C4CC4)CC3)c3c2CCC3)C[C@H](C)O1 [Example 113, 1-[4-(2-cyclopropylphenyl)piperidin-1-yl]-2-{3-[(2R,6S)-2,6-dimethylmorpholine-4-carbonyl]-5,6-dihydrocyclopenta[c]pyrazol-1(4H)-yl}ethan-1-one] | 7.37 | –

These reach a higher pIC50 (IDO1 [1]). Values come first.

pIC50 (IDO1 [1]) | pIC50 (IDO1 [2]) | SMILES
8.14 | 6.14 | Cc1cccc(C2CCN(C(=O)Cn3nc(C(=O)N4CC[C@H](O)[C@H](F)C4)c4c3CCC4)CC2)c1C [Example 44, 1-(4-(2,3-dimethylphenyl)piperidin-1-yl)-2-(3-((3R,4S)-3-fluoro-4-hydroxypiperidine-1-carbonyl)-5,6-dihydrocyclopenta[c]pyrazol-1(4H)-yl)ethanone]
8.29 | 7.06 | Cc1cccc(C2CCN(C(=O)Cn3nc(C(=O)N4CCC(O)(CF)CC4)c4c3CCC4)CC2)c1C [Example 31, 1-[4-(2,3-dimethylphenyl)-1-piperidyl]-2-[3-[4-(fluoromethyl)-4-hydroxy-piperidine-1-carbonyl]-5,6-dihydro-4H-cyclopenta[c]pyrazol-1-yl]ethanone]
8.44 | – | Cc1cccc(C2CCN(C(=O)Cn3nc(C(=O)N4CCC(O)CC4)c4c3CCC4)CC2)c1C [Example 41, 1-(4-(2,3-dimethylphenyl)piperidin-1-yl)-2-(3-(4-hydroxypiperidine-1-carbonyl)-5,6-dihydrocyclopenta[c]pyrazol-1(4H)-yl)ethan-1-one]
8.47 | – | Cc1cccc(C2(F)CCN(C(=O)Cn3nc(C(=O)N4CCC(O)CC4)c4c3C[C@H]3C[C@@H]43)CC2)c1C [Example 10, 1-(4-(2,3-dimethylphenyl)-4-fluoropiperidin-1-yl)-2-((3bR,4aR)-3-(4-hydroxypiperidine-1-carbonyl)-3b,4,4a,5-tetrahydro-1H-cyclopropa[3,4]cyclopenta[1,2-c]pyrazol-1-yl)ethanone]
8.49 | 5.92 | Cc1cccc(C2(F)CCN(C(=O)Cn3nc(C(=O)N4C[C@@H](C)O[C@@H](C)C4)c4c3CCC4)CC2)c1C [Example 7, 2-(3-((2R,6S)-2,6-dimethylmorpholine-4-carbonyl)-5,6-dihydrocyclopenta[c]pyrazol-1(4H)-yl)-1-(4-(2,3-dimethylphenyl)-4-fluoropiperidin-1-yl)ethanone]
8.96 | – | Cc1cccc(C2CCN(C(=O)Cn3nc(C(=O)N4CC[C@H](O)[C@@H](F)C4)c4c3C[C@H]3C[C@@H]43)CC2)c1C [Example 23, 1-[4-(2,3-dimethylphenyl)piperidin-1-yl]-2-{(3bR,4aR)-3-[(3S,4S)-3-fluoro-4-hydroxypiperidine-1-carbonyl]-3b,4,4a,5-tetrahydro-1H-cyclopropa[3,4]cyclopenta[1,2-c]pyrazol-1-yl}ethan-1-one]
9.00 | 7.22 | Cc1c(Cl)cccc1C1CCN(C(=O)Cn2nc(C(=O)N3CCN(C(=O)CO)CC3)c3c2C[C@H]2C[C@@H]32)CC1 [Example 17, 1-(4-(3-chloro-2-methylphenyl)piperidin-1-yl)-2-((3bR,4aR)-3-(4-(2-hydroxyacetyl)piperazine-1-carbonyl)-3b,4,4a,5-tetrahydro-1H-cyclopropa[3,4]cyclopenta[1,2-c]pyrazol-1-yl)ethanone]
9.05 | 6.66 | Cc1cccc(C2CCN(C(=O)Cn3nc(C(=O)N4CC[C@@H](O)[C@H](C)C4)c4c3C[C@H]3C[C@@H]43)CC2)c1C [Example 19, 1-[4-(2,3-dimethylphenyl)piperidin-1-yl]-2-{(3bR,4aR)-3-[(3R,4R)-4-hydroxy-3-methylpiperidine-1-carbonyl]-3b,4,4a,5-tetrahydro-1H-cyclopropa[3,4]cyclopenta[1,2-c]pyrazol-1-yl}ethan-1-one]
